The results in this text go back to publication PMC8617627, “Novel DYRK1A Inhibitor Rescues Learning and Memory Deficits in a Mouse Model of Down Syndrome” (Pharmaceuticals, 2021).

Read-outs that look alike come from different tables or passages of the source.

What all share (assay): Kinase profile (33P ATP filter binding)
Holding throughout (assay type): biochemical

One assay deals with T1, EPH-B1 (Homo sapiens, UniProt P54762).
T1 sequence (P54762 18-984): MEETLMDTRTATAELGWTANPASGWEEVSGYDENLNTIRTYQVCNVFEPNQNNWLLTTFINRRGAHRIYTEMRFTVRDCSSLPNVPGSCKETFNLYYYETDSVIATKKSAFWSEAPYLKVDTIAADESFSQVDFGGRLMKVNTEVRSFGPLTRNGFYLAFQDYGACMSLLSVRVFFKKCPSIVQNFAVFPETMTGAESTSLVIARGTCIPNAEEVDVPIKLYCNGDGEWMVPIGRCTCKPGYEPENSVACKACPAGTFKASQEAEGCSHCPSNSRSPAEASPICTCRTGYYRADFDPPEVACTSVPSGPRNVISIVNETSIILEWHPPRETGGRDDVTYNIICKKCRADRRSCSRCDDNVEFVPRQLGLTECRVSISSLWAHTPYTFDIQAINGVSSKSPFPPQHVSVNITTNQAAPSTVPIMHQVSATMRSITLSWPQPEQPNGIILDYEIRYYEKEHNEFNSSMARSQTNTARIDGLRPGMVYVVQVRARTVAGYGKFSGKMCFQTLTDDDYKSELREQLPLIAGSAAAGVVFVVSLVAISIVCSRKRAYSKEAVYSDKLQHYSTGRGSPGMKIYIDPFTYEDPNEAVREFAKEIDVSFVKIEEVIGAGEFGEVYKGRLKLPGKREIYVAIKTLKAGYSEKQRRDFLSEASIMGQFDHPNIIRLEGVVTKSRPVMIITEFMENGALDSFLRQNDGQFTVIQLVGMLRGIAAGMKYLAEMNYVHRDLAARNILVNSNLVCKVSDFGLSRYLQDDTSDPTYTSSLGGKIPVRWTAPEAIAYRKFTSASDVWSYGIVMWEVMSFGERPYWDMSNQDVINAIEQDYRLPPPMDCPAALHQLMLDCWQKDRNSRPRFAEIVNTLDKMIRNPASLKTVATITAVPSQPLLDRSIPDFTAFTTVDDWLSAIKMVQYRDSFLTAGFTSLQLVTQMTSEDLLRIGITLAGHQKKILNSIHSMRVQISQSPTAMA
The following applies: read-out: Remaining protein kinase activity.

The target of a further assay is Lck (Homo sapiens, UniProt P06239). The following applies: read-out: Remaining protein kinase activity.
Another assay deals with ERK2 (Homo sapiens, UniProt P28482). The settings on record: read-out: Remaining protein kinase activity.
Another assay addresses HIPK1 (Homo sapiens, UniProt Q86Z02). The following applies: read-out: Remaining protein kinase activity.
In the next assay the target is WNK1 (Homo sapiens, UniProt Q9H4A3).
Chain of WNK1 (Q9H4A3 whole entry): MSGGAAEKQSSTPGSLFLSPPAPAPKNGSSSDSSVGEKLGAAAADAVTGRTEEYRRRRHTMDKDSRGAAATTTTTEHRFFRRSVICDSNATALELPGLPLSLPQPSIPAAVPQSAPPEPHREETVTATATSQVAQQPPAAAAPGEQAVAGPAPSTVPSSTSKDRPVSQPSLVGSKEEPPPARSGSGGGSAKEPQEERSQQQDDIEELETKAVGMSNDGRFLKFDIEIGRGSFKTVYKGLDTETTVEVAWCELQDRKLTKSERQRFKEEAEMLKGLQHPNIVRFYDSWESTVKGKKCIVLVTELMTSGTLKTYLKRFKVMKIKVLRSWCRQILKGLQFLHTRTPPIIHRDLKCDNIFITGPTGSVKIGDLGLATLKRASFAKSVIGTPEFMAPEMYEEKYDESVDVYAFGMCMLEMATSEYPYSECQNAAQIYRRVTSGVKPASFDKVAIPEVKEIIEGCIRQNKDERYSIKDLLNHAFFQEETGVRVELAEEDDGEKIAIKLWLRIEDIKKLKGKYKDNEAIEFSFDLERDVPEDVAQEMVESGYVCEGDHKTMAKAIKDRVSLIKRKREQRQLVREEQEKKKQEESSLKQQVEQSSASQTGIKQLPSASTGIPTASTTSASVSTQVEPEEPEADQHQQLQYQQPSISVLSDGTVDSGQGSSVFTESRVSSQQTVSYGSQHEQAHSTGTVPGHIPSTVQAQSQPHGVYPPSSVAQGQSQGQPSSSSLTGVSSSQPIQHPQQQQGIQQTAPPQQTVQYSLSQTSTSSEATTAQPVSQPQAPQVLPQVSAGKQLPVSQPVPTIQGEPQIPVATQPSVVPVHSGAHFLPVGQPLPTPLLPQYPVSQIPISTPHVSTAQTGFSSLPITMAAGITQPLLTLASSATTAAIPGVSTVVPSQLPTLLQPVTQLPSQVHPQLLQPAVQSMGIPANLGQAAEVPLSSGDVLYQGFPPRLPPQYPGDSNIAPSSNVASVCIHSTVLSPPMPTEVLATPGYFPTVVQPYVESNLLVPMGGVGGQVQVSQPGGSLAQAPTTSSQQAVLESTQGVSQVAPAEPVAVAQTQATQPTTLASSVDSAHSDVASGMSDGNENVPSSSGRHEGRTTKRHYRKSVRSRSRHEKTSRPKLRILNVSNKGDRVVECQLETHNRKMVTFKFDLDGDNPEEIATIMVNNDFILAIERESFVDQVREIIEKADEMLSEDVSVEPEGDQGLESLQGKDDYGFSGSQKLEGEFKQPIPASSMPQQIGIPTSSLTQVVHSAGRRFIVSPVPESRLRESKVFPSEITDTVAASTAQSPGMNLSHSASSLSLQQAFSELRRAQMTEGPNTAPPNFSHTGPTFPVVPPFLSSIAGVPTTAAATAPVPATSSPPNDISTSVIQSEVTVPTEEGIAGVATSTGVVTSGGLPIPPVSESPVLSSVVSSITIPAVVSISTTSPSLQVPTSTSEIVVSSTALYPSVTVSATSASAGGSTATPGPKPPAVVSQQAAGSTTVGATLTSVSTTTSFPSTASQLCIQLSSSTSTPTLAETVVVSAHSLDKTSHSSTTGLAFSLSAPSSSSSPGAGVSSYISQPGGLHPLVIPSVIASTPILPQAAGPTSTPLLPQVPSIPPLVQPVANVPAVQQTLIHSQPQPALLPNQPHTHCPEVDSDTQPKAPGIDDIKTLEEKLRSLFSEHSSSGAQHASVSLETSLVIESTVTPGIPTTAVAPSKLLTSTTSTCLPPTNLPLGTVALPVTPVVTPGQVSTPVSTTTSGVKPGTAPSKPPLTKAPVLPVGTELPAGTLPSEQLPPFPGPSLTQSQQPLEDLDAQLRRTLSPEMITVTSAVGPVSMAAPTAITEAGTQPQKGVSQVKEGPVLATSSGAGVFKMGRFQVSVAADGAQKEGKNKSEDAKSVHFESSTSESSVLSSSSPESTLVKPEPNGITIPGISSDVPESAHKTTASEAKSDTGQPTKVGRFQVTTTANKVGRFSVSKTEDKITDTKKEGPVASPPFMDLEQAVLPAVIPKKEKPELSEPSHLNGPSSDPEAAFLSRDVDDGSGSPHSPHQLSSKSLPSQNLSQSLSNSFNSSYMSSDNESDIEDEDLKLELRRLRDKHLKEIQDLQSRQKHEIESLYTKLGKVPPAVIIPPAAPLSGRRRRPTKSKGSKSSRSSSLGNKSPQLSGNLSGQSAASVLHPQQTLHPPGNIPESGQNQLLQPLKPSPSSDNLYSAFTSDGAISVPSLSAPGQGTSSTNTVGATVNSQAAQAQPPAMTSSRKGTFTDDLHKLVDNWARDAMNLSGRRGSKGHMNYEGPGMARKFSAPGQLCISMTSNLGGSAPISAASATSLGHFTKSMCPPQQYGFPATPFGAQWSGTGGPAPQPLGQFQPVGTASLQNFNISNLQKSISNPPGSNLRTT
The target of another assay is AMPK (hum) (Homo sapiens, UniProt Q13131). The settings on record: read-out: Remaining protein kinase activity.
The target in a further assay is T2, TAO1 (Homo sapiens, UniProt Q7L7X3).
T2 sequence (Q7L7X3 1-1001): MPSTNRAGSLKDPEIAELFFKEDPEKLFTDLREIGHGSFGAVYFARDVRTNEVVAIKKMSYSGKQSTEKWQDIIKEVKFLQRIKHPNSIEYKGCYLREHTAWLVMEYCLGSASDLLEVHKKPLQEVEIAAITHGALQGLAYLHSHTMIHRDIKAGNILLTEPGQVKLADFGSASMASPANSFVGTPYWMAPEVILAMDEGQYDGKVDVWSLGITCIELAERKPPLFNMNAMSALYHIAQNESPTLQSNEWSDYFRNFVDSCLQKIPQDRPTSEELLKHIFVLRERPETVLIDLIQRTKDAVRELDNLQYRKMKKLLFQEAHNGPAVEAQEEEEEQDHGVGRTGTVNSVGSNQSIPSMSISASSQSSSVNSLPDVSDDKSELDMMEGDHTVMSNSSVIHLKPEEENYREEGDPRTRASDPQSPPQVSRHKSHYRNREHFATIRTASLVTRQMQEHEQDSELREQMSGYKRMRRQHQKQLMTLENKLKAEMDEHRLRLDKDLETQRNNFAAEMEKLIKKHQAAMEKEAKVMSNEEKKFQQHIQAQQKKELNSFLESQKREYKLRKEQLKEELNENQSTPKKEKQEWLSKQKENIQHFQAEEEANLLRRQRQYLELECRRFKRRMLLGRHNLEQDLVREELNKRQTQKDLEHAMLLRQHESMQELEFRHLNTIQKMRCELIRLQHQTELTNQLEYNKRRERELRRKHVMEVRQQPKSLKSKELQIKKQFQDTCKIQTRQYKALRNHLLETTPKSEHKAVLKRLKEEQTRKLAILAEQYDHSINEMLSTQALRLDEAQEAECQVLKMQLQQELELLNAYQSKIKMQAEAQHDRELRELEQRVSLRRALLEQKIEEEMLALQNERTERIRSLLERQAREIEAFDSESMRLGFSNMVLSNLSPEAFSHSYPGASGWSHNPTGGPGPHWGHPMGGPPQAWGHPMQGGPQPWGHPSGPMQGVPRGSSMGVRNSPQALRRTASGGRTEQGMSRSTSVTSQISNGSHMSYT
The settings on record: read-out: Remaining protein kinase activity.

Another assay addresses MARK2 (Homo sapiens, UniProt Q7KZI7). The settings on record: read-out: Remaining protein kinase activity.
The target of a further assay is CAMK1 (Homo sapiens, UniProt Q14012). The settings on record: read-out: Remaining protein kinase activity.
Chain of CAMK1 (Q14012 whole entry): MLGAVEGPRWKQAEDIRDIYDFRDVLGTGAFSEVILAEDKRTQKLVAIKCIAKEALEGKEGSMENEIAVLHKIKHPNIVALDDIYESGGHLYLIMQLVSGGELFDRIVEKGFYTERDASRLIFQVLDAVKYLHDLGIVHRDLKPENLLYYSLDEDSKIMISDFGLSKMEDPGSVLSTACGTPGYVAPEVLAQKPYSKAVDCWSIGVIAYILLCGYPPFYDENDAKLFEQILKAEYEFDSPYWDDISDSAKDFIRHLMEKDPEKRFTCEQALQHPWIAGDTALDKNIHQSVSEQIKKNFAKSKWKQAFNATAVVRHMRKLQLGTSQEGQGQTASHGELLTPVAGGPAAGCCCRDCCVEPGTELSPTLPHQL
In another assay the target is PIM2 (Homo sapiens, UniProt Q9P1W9). The settings on record: read-out: Remaining protein kinase activity.
Chain of PIM2 (Q9P1W9 whole entry): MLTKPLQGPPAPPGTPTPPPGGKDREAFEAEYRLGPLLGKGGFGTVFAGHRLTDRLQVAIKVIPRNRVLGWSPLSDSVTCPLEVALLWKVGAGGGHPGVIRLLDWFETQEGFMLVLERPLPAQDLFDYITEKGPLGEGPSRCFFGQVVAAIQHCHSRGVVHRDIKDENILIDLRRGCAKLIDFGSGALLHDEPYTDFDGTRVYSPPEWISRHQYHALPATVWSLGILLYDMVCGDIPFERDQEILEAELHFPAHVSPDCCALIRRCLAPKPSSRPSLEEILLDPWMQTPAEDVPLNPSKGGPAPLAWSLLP

Chain of HIPK1 (Q86Z02 whole entry): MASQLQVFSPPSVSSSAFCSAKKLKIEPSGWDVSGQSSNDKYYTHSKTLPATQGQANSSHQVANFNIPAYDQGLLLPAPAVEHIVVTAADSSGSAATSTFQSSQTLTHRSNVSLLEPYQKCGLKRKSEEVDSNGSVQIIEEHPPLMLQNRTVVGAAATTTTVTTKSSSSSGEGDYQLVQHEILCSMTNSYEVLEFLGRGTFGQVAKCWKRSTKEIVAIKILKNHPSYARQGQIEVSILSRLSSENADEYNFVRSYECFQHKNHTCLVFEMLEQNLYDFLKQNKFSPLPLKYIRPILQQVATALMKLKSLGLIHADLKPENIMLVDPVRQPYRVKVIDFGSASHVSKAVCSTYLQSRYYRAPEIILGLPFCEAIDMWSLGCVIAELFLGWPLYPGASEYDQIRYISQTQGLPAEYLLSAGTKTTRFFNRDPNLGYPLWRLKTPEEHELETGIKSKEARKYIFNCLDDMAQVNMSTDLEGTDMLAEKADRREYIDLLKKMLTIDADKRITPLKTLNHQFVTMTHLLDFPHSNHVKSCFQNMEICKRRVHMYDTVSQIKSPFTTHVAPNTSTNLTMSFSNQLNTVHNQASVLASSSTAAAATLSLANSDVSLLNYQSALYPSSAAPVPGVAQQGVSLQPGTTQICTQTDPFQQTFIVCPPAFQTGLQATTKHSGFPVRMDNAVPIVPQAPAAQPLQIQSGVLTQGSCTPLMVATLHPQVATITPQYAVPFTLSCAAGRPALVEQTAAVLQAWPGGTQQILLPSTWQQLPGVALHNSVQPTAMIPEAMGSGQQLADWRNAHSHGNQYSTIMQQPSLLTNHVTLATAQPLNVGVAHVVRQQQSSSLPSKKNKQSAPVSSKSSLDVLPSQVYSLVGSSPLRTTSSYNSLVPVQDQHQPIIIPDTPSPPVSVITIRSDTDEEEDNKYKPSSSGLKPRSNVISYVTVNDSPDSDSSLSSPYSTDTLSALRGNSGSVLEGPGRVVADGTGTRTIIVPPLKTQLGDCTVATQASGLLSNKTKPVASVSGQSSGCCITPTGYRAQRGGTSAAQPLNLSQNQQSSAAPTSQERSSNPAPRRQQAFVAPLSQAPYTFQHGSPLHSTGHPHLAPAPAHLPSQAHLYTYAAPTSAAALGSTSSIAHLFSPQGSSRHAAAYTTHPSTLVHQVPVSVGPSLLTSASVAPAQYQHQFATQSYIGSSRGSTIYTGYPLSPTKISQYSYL
Chain of MARK2 (Q7KZI7 whole entry): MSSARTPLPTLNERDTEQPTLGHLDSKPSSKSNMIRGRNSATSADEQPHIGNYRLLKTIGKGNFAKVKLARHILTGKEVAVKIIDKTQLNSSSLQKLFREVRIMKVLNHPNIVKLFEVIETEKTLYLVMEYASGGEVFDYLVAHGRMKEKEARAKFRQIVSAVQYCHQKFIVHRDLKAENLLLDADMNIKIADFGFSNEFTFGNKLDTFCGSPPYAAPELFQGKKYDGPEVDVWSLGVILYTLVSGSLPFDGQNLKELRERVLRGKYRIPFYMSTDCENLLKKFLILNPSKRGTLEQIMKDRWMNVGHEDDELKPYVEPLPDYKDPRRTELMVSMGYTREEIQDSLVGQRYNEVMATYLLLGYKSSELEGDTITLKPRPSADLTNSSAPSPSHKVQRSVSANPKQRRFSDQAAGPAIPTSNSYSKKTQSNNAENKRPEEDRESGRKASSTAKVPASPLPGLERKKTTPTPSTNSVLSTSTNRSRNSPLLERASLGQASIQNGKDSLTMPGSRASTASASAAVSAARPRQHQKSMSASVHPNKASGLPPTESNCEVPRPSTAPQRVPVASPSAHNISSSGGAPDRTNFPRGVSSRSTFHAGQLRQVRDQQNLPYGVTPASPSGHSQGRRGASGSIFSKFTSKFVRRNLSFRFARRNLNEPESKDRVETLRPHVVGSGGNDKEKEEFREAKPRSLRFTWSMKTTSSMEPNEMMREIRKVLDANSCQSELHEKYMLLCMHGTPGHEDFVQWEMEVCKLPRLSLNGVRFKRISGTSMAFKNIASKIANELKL

As for `COc1ccc2sc(-c3cncc(NC(C)=O)c3)nc2c1` [PST-001, N-(5-(5-Methoxybenzo[d]thiazol-2-yl)pyridin-3-yl)acetamide], the remaining activity at 1 µM stood at 117% on EPH-B1; 93% at Lck; 115% at ERK2; 113% on HIPK1; 99% at AMPK (hum); 102% at TAO1. Further, the figures for the remaining activity at 1 µM on MARK2 and on PIM2 were 116% and 120%, respectively. Further, the remaining activity at 100 µM turned out to be 108% at EPH-B1; 100% on Lck; 112% on ERK2; 113% on HIPK1; 69% at AMPK (hum); 111% on TAO1. Besides, the remaining activity at 100 µM came to 106% on MARK2, 100% on CAMK1 and 102% on PIM2. Moreover, the entries for the “Remaining protein kinase activity” value on WNK1 (1 μM) and at WNK1 (100 μM) were 127% and 118%, respectively.
On to `COc1ccc2sc(-c3cncc(N)c3)nc2c1` [compound 1, 5-(5-Methoxybenzo[d]thiazol-2-yl)pyridin-3-amine], for which the remaining activity at 1 µM at EPH-B1 (EPH-B1, 1 μM) came out at 122%; at Lck (Lck, 1 μM), 106%; at ERK2 (ERK2, 1 μM), 102%; on HIPK1 (HIPK1, 1 μM), 116%; on AMPK (hum) (AMPK (hum), 1 μM), 107%; on TAO1 (TAO1, 1 μM), 97%. Also, the remaining activity at 1 µM on MARK2 (MARK2, 1 μM) stood at 112%; on CAMK1 (CAMK1, 1 μM) it was 99%; on PIM2 (PIM2, 1 μM), 110%. For the same compound, the remaining activity at 100 µM on EPH-B1 (EPH-B1, 100 μM) turned out to be 91%; at Lck (Lck, 100 μM), 52%; on ERK2 (ERK2, 100 μM), 96%; at HIPK1 (HIPK1, 100 μM), 36%; at AMPK (hum) (AMPK (hum), 100 μM) it was 46%; on TAO1 (TAO1, 100 μM) it was 57%. The remaining activity at 100 µM at MARK2 (MARK2, 100 μM) stood at 62%; on CAMK1 (CAMK1, 100 μM), 52%; on PIM2 (PIM2, 100 μM), 36%. Besides, the “Remaining protein kinase activity” value was 116% on WNK1 (1 μM) and 113% on WNK1 (100 μM).
